According to patent publication US9617310B2 (priority 2013, dated 2017):

Assays:
[1] = molecular target: T1, NS3 genotype 3a protease (UniProt Q81258); test: Ki determination, NS3 protease genotype 3a (fluorogenic depsipeptide substrate); format: biochemical, hepatitis C virus; settings: NS3 protease domain genotype 3a, NS4A peptide
T1 construct: Purified NS3 protease domain (amino acids 1-181) of the genotype 1b and 3a virus were generated as above; fused on or other part: N-terminal hexahistidine tag with an rTEV protease cleavage site (vector p28-N6H-Tev-NS3(181)3)
T1 sequence (Q81258 1033-1663): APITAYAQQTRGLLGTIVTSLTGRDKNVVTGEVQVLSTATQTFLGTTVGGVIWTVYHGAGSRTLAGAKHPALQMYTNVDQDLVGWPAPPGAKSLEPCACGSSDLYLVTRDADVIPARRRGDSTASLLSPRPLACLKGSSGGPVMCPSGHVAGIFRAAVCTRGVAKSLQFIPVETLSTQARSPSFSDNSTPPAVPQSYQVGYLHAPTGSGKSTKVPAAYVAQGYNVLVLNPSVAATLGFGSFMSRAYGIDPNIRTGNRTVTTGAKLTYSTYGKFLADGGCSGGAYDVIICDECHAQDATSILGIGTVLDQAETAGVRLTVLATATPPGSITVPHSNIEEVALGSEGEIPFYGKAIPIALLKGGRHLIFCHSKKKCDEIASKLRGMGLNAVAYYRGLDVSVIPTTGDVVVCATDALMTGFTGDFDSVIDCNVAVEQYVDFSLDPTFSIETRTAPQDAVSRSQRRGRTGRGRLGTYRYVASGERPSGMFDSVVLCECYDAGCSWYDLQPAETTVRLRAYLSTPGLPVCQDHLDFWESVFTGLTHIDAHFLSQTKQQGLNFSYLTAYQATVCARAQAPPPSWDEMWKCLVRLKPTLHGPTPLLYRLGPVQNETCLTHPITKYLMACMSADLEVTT
Procedure, shortened: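 NS3 protease domain (aa 1-181), 50 pM (1b) or 200 pM (3a), with 20 μM NS4A peptide, pre-incubated 1 h with inhibitor (100 nM–5 pM); 4 μM (1b) or 2 μM (3a) FRET depsipeptide substrate, room temperature, pH-unspecified HEPES buffer with 40% glycerol, 10% DMSO. Steady-state rates at 90–120 min (ex 340/em 490); Morrison fit gave Ki^app, corrected to Ki via substrate/Km.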

[2] = tested on: genotype 1a stable HCV replicon (H77) in Huh-7-derived cells; test: Stable subgenomic HCV replicon, genotype 1a, Renilla luciferase; format: cell-based; settings: Hepatitis C virus, stable replicon genotype 1a, 72 h, read-out: EC50 1A RLUC
Procedure, shortened: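 Replicons carry hRLuc-neo, EMCV IRES and NS3-NS5B with adaptive mutations: 1a H77 P1496L/S2204I, 1b Con1 E1202G/T1280I/K1846T, 4a ED43 Q1691R/S2204I. EC50 came from non-linear regression versus DMSO and a triple-inhibitor full-inhibition control.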

[3] = tested on: genotype 1b wild-type transient HCV replicon in Huh-7-derived cells; test: Transient-transfected HCV replicon, genotype 1b wild type; format: cell-based; settings: Hepatitis C virus; transient-transfected replicon genotype 1b wild type, 72 h; read-out: EC50 1B WT

CC(C)(C)[C@@H]1NC(=O)O[C@@H]2C[C@@H]3C[C@@H]3[C@H]2CCCCC(F)(F)c2nc3ccc(C#N)cc3nc2O[C@@H]2C[C@@H](C(=O)N[C@]3(C(=O)NS(=O)(=O)C4(C)CC4)C[C@H]3C(F)F)N(C2)C1=O [Example 14, (1aS,2aR,6S,9S,11R,23aR,23bS)-6-tert-butyl-15-cyano-N-[(1R,2R)-2-(difluoromethyl)-1-{[(1-methylcyclopropyl)sulfonyl]carbamoyl}cyclopropyl]-19,19-difluoro-4,7-dioxo-1a,2,2a,4,5,6,7,10,11,19,20,21,22,23,23a,23b-hexadecahydro-1H,9H-8,11-methanocyclopropa[4′,5′]cyclopenta [1′,2′:18,19][1,10,3,6]dioxadiazacyclononadecino[11,12-b]quinoxaline-9-carboxamide]
Ki [1]: 0.01 nM | EC50 [2]: 1.4 nM | EC50 [3]: 0.55 nM

CC(C)(C)[C@@H]1NC(=O)O[C@@H]2C[C@@H]3C[C@@H]3[C@H]2CCCCC(F)(F)c2nc3ccc(OC(F)F)cc3nc2O[C@@H]2C[C@@H](C(=O)N[C@]3(C(=O)NS(=O)(=O)C4CC4)C[C@H]3C(F)F)N(C2)C1=O [Example 16, (1aS,2aR,6S,9S,11R,23aR,23bS)-6-tert-butyl-N-[(1R,2R)-1-[(cyclopropylsulfonyl)carbamoyl]-2-(difluoromethyl)cyclopropyl]-15-(difluoromethoxy)-19,19-difluoro-4,7-dioxo-1a,2,2a,4,5,6,7,10,11,19,20,21,22,23,23a,23b-hexadecahydro-1H,9H-8,11-methanocyclopropa[4′,5′]cyclopenta [1′,2′:18,19][1,10,3,6]dioxadiazacyclononadecino[11,12-b]quinoxaline-9-carboxamide]
Ki [1]: 0.13 nM | EC50 [2]: 3.8 nM | EC50 [3]: 1.6 nM

CC(C)(C)[C@@H]1NC(=O)O[C@@H]2C[C@@H]3C[C@@H]3[C@H]2CCCCC(F)(F)c2nc3ccccc3nc2O[C@@H]2C[C@@H](C(=O)N[C@]3(C(=O)NS(=O)(=O)C4(C)CC4)C[C@H]3C(F)F)N(C2)C1=O [Example 17]
Ki [1]: 0.02 nM | EC50 [2]: 5.8 nM | EC50 [3]: 1.3 nM

CC(C)(C)[C@@H]1NC(=O)O[C@@H]2C[C@@H]3C[C@@H]3[C@H]2CCCCC(F)(F)c2nc3ccccc3nc2O[C@@H]2C[C@@H](C(=O)N[C@]3(C(=O)NS(=O)(=O)C4CC4)C[C@H]3C(F)F)N(C2)C1=O [Example 18]
Ki [1]: 0.02 nM | EC50 [2]: 4.8 nM | EC50 [3]: 1.6 nM

CC(C)(C)[C@@H]1NC(=O)O[C@@H]2C[C@@H]3C[C@@H]3[C@H]2CCCCCc2nc3ccc(Cl)cc3nc2O[C@@H]2C[C@@H](C(=O)N[C@]3(C(=O)NS(=O)(=O)C4CC4)C[C@H]3C(F)F)N(C2)C1=O [Example 19, (1aS,2aR,6S,9S,11R,23aR,23bS)-6-tert-butyl-15-chloro-N-[(1R,2R)-1-[(cyclopropylsulfonyl)carbamoyl]-2-(difluoromethyl)cyclopropyl]-4,7-dioxo-1a,2,2a,4,5,6,7,10,11,19,20,21,22,23,23a, 23b-hexadecahydro-1H,9H-8,11-methanocyclopropa[4′,5′]cyclopenta[1′,2′:18,19][1,10,3,6]dioxadiazacyclononadecino[11,12-b]quinoxaline-9-carboxamide]
Ki [1]: 0.06 nM | EC50 [2]: 1.4 nM | EC50 [3]: 1.1 nM

COc1ccc2nc3c(nc2c1)O[C@@H]1C[C@@H](C(=O)N[C@]2(C(=O)NS(=O)(=O)C4(C)CC4)C[C@H]2CC(F)F)N(C1)C(=O)[C@H](C(C)(C)C)NC(=O)O[C@@H]1C[C@@H]2C[C@@H]2[C@H]1CCCCC3(F)F [Example 20, (1aS,2aR,6S,9S,11R,23aR,23bS)-6-tert-butyl-N-[(1R,2S)-2-(2,2-difluoroethyl)-1-{[(1-methylcyclopropyl)sulfonyl]carbamoyl}cyclopropyl]-19,19-difluoro-15-methoxy-4,7-dioxo-1a,2,2a,4,5,6,7,10,11,19,20,21,22,23,23a,23b-hexadecahydro-1H,9H-8,11-methanocyclopropa[4′,5′]cyclopenta[1′,2′:18,19][1,10,3,6]dioxadiazacyclononadecino[11,12-b]quinoxaline-9-carboxamide]
Ki [1]: 0.07 nM | EC50 [2]: 6 nM | EC50 [3]: 4.1 nM

COc1ccc2cc3c(nc2c1)O[C@@H]1C[C@@H](C(=O)N[C@]2(C(=O)NS(=O)(=O)C4CC4)C[C@H]2C(F)F)N(C1)C(=O)[C@H](C(C)(C)C)NC(=O)O[C@@H]1C[C@@H]2C[C@@H]2[C@H]1CCCCC3 [Example 21, (1aS,2aR,6S,9S,11R,23aR,23bS)-6-tert-butyl-N-[(1R,2R)-1-[(cyclopropylsulfonyl)carbamoyl]-2-(difluoromethyl)cyclopropyl]-15-methoxy-4,7-dioxo-1a,2,2a,4,5,6,7,10,11,19,20,21,22,23,23a,23b-hexadecahydro-1H,9H-8,11-methanocyclopropa[4′,5′]cyclopenta[1′,2′:18,19][1,10,3,6]dioxadiazacyclononadecino[11,12-b]quinoline-9-carboxamide]
Ki [1]: 0.1 nM | EC50 [2]: 1.6 nM | EC50 [3]: 0.61 nM
